Entries after “also recorded” stand apart in the source; their conditions may differ.
Tests used:
[1] = molecular target: human NE transporter (hNET) (Homo sapiens, UniProt P23975); assay: NE transporter competitive binding assay, [3H]nisoxetine; conditions: Example 14; read-out: NET Ki
Method: (§1) Protocol. […] Bound radioactivity was determined by scintillation spectroscopy. Non-specific binding was defined as the amount of binding that occurred in the presence of 1.0 μM desipramine. The Ki values of the various test compounds were determined using standard methods.
as §1

[2] = molecular target: T1, human serotonin transporter (hSERT) (Homo sapiens, UniProt P31645); assay: 5HT transporter competitive binding assay, [3H]imipramine; conditions: Example 14; read-out: SERT Ki
T1 construct: expressed in transfected cells; host or cells: CHO cells (membranes)
T1 sequence (P31645 whole entry): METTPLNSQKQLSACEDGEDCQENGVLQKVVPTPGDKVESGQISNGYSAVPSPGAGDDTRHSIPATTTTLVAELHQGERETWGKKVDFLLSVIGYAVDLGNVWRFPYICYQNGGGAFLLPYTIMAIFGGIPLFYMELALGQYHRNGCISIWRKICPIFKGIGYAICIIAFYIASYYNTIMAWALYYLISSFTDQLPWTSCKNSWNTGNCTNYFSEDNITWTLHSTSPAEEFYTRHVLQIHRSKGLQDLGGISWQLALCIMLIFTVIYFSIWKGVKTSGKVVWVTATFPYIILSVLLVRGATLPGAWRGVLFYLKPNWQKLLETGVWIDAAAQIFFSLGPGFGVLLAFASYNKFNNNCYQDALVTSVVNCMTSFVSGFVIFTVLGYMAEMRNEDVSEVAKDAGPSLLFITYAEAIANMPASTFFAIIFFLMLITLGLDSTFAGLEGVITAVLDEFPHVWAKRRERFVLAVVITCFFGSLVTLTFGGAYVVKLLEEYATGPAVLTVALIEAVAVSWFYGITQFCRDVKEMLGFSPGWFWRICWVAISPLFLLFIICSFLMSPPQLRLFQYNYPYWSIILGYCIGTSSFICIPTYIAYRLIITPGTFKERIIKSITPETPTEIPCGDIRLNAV
Method: (§2) Bound radioactivity was determined by scintillation spectroscopy. […] The Ki values of the various test compounds were determined using standard methods.
as §2

[3] = tested on: L5 SNL rats, tactile allodynia; assay: L5-Single Nerve Ligation model of neuropathic pain (von Frey); type: in vivo, rat; conditions: 30 mg/kg, i.p.
Method: Protocol. […] The test animals were placed in a Plexiglas chamber (10 cm×20 cm×25 cm) and habituated for 15 minutes. The chamber was positioned on top of a mesh screen so that von Frey monofilaments could be presented to the plantar surface of both hindpaws. Measurement of tactile sensitivity for each hindpaw were obtained using the up/down method (Dixon, 1980) with seven Frey monofilaments (0.4, 1, 2, 4, 6, 8 and 15 grams). Each trial started with a von Frey force of 2 grams delivered to the right hindpaw for approximately 1-2 seconds and then the left hindpaw. If there was no withdrawal response, the next higher force was delivered. If there was a response, the next lower force was delivered. This procedure was performed until no response was made at the highest force (15 grams) or until four stimuli were administered following the initial response. Each test group contained 8 animals. The sham-operated control group, which were operated on but not subject to nerve ligation, contained 4 animals. All animals were tested at 60 minutes, and 240 minutes, post-administration of test compounds.
The 50% paw withdrawal threshold for each paw was calculated using the following formula: [Xth] log=[vFr] log+ky where [vFr] is the force of the last von Frey used, k=0.2249 which is the average interval (in log units) between the von Frey monofilaments, and y is a value that depends upon the pattern of withdrawal responses (Dixon, 1980). […] Testing for tactile sensitivity was performed twice and the mean 50% withdrawal value assigned as the tactile sensitivity for the right and left paws for each animal.
The E-10-OH-NT compounds were administered as either a maleate or succinate salt. AT was administered as a hydrochloride salt. Dosage amounts are based on the amount of free base. The test animals were placed in a Plexiglas chamber (10 cm×20 cm×25 cm) and habituated for 15 minutes. The chamber was positioned on top of a mesh screen so that von Frey monofilaments could be presented to the plantar surface of both hindpaws. Measurement of tactile sensitivity for each hindpaw were obtained using the up/down method (Dixon, 1980) with seven Frey monofilaments (0.4, 1, 2, 4, 6, 8 and 15 grams). Each trial started with a von Frey force of 2 grams delivered to the right hindpaw for approximately 1-2 seconds and then the left hindpaw. If there was no withdrawal response, the next higher force was delivered. If there was a response, the next lower force was delivered. This procedure was performed until no response was made at the highest force (15 grams) or until four stimuli were administered following the initial response. Each test group contained 8 animals. The sham-operated control group, which were operated on but not subject to nerve ligation, contained 4 animals. […]

[4] = molecular target: T2, NE uptake, mouse atria (Mus musculus, UniProt O55192); conditions: Hyttel, 1980; cited from earlier work
T2 construct: host or cells: mouse atria
T2 sequence (O55192 whole entry): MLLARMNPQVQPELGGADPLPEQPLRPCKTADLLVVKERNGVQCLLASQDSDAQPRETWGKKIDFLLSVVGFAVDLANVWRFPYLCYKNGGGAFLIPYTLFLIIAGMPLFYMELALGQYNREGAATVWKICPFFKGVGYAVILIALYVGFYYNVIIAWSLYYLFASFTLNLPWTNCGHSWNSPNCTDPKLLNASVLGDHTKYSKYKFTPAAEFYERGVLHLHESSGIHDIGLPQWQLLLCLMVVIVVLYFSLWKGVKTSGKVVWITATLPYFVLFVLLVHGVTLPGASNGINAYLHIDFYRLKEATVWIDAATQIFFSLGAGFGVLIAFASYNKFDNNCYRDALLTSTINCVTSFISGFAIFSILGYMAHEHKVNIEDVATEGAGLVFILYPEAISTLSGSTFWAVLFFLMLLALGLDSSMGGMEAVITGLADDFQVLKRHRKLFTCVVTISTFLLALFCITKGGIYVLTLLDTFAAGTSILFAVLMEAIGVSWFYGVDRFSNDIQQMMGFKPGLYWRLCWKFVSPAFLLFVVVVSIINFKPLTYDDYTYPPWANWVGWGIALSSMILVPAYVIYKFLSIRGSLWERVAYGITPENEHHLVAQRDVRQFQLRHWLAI

[5] = tested on: pain intensity; conditions: study completers; Atkinson et al., 1999; cited from earlier work
[6] = Hygroscopicity of salt form; type: physicochemical; conditions: crystalline salt
[7] = tested on: acetic acid-induced abdominal constriction; conditions: cited from earlier work

human NE transporter (hNET), sequence (P23975 whole entry): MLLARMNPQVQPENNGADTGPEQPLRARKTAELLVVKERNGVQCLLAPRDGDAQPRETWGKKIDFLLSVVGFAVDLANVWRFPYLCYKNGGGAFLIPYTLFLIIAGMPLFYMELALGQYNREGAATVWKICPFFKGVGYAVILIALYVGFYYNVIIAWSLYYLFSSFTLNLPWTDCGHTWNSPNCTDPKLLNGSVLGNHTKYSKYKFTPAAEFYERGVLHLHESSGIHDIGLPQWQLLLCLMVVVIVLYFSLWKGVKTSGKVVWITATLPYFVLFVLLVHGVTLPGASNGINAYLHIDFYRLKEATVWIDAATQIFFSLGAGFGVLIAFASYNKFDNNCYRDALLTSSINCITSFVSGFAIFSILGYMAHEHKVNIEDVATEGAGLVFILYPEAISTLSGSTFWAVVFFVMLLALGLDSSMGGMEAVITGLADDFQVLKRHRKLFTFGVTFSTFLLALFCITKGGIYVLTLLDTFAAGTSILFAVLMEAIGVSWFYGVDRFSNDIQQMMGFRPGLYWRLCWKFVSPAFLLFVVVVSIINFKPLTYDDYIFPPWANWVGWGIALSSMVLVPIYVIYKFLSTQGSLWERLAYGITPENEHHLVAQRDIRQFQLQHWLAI

Question: With `CNCC/C=C1\c2ccccc2CC(O)c2ccccc21` (racemic) [(±)-E-10-OH-NT, (S/R)-5-[3-Methylamino-prop-(E)-ylidene]-10,11-dihydro-5H-dibenzo[a,d]cyclohepten-10-ol, reference compound] as the compound, how does the Ki [1] read?
Answer: 51 nM

Question: What about the Ki [2] of the same compound?
Answer: 420 nM

Question: What about the antiallodynic activity [3] of the same compound?
Answer: comparable to that of the vehicle-only control

Question: What about the IC50 [4] of the same compound?
Answer: 130 nM

Question: Which “reduction in pain intensity” value [5] does the source give for `Fc1ccc([C@@H]2CCNC[C@H]2COc2ccc3c(c2)OCO3)cc1` [paroxetine] here?
Answer: 26%

Question: With `CNCC/C=C1\c2ccccc2CC(O)c2ccccc21.O=C(O)CCC(=O)O` (single isomer, unassigned; (-)) [(−)-E-10-OH-NT Succinate] as the compound, how does the hygroscopicity [6] read?
Answer: non-hydroscopic; also recorded: non-hygroscopic

Question: Which “reduction in pain intensity” value [5] does the source give for `CNCCCC12CCC(c3ccccc31)c1ccccc12` [maprotiline] here?
Answer: 45%

Question: Which “inhibition of acetic acid-induced abdominal constriction” value ([7]; doses up to 3 mg/kg, subcutaneously, by itself) does the source give for `COC1(C2=NCCN2)COc2ccccc2O1` (stereo not drawn) [RX821002, [2-(2-methoxy-1, -4-benzodioxan-2-yl)-2-imidazoline]] here?
Answer: did not produce significant inhibition

Question: With `Clc1cccc(Cl)c1N=C1NCCN1` [clonidine] as the compound, how does the “protection against acetic acid-induced abdominal constriction” value ([7]; highest dose level, 1.0 mg/kg (s.c.)) read?
Answer: 100%
